For one assay, the system named is TNFα. Nature of the assay: IRAK4 Monocyte TNFα Cell Based Assay. Conditions: cryopreserved human monocytes, LPS 50 pg/ml stimulation, TNFα by TR-FRET. Here is the method: The cell suspension was then plated at a density of 5,000 cells/well onto black 384 well Greiner clear bottom plates. Plates were pre-spotted with test compounds and serially diluted in DMSO where 40 nL/well were delivered using the Echo 550 acoustic liquid dispenser (Labcyte®) for a final DMSO concentration of 0.1%. Plated cells were treated with compound for 1 hour at 37° C. Cells were then stimulated with 50 pg/ml of LPS (Sigma) excluding outside columns of plate used for unstimulated cell control wells. Cells were incubated for an additional 4 hours at 37° C. Cells were then spun out of the media and 5 μl of sample were taken and analyzed for total TNFα content using the TR-FRET Human TNFα detection system (CisBio). This system utilizes two labeled antibodies (cryptate and XL665) that bind to two different epitopes of the TNFα molecule and produce FRET signal proportional to the concentration of TNFα in the sample. Detection antibodies are mixed 50:50 and 5 μL were dispensed into each well. Plates were covered with clear seals and incubated at room temp overnight. The following morning plates were read using an Envision 2103 Multilabeled reader (PerkinElmer) with excitation/emission/FRET emission at 340 nm/615 nm/665 nm, respectively. Fluorescence intensities at 615 nm and 665 nm emission wavelengths were expressed as a ratio (665 nm/615 nm). Percent of control was calculated as follows: % Control=100×(RatioSample−Ratio0% stimulation)/(Ratio100% Stimulation−Ratio0% stimulation) where unstimulated cells (0% stimulation) were the negative control and stimulated cells (100% stimulation) were used as the positive control.

The next assay has as its target IRAK4 enzyme (Homo sapiens (Human), UniProt Q9NWZ3). Nature of the assay: IRAK4 Biochemical Assay (TR-FRET/HTRF). Particulars: 0.75 nM IRAK4, 500 μM ATP, STK1 peptide. As to the method: IRAK4 enzyme (Carna Biosciences, Chuo-ku, Kobe, Japan) activity was measured by detecting phosphorylated peptide substrate formation using an antibody against the phosphorylated peptide substrate. This is a time-resolved fluorescence resonance energy transfer (TR-FRET) immunoassay, based on the STK1 KinEASE Assay (Cisbio, Bedford, Mass.). The assay was designed as a simple two-step, endpoint assay (a 5 μl enzyme reaction followed by 5 μl stop and detect Solution) performed in ProxiPlate-384 Plus plates (Perkin Elmer, Waltham, Mass.). Staurosporine, a non-selective kinase inhibitor was used as a positive control. Compounds diluted in DMSO were spotted into 384 well plates using a Labcyte® Echo 550 Liquid Handling System prior to addition of IRAK4 enzyme and peptide substrate. Reaction solutions were delivered using a Multi-Flo (Bio-Tek Instruments). The enzyme and peptide solution was incubated with compound for 15 minutes at room temp before the reaction was initiated by the addition of ATP. The standard 5 μl reaction mixture contained 500 μM ATP, 2 μM peptide (STK1 Peptide), 0.75 nM of IRAK4 in reaction buffer (50 mM HEPES, pH 7.0, 0.02% NaN3, 0.01% BSA, 0.1 mM Orthovanadate, 5 mM MgCl2, 0.025% NP-40, 1 mM DTT). After 120 min of incubation at room temperature, 5 μl of Stop and Detect Solution (1:100 Cryptate labeled anti-phosphorylated peptide antibody solution and 125 nM Tracer in a 50 mM HEPES pH 7.0 detection buffer containing sufficient EDTA) was added. The plate was then further incubated for 60 minutes at room temperature and read on Envision 2103 Multilabeled reader (PerkinElmer) with excitation/emission/FRET emission at 340 nm/615 nm/665 nm, respectively. Fluorescence intensities at 615 nm and 665 nm emission wavelengths were expressed as a ratio (665 nm/615 nm). Percentage of inhibition was calculated as below: % Inhibition=100×(RatioSample−Ratio0% Inhibition)/(Ratio100% Inhibition−Ratio0% Inhibition)
The 0% inhibition value comes from control wells lacking inhibitor. The 100% inhibition value comes from control wells containing a saturating amount of known inhibitor staurosporine.
(In general: In TR-FRET formats the signal depends on donor and acceptor labels being close together.)

Data on 19 molecules can be found in patent publication US11053250B2, “Pyrrolo[1,2-b]pyridazine derivatives” (Gilead Sciences, Inc., priority 2018, dated 2021).

Chain of IRAK4 enzyme (Q9NWZ3 whole entry): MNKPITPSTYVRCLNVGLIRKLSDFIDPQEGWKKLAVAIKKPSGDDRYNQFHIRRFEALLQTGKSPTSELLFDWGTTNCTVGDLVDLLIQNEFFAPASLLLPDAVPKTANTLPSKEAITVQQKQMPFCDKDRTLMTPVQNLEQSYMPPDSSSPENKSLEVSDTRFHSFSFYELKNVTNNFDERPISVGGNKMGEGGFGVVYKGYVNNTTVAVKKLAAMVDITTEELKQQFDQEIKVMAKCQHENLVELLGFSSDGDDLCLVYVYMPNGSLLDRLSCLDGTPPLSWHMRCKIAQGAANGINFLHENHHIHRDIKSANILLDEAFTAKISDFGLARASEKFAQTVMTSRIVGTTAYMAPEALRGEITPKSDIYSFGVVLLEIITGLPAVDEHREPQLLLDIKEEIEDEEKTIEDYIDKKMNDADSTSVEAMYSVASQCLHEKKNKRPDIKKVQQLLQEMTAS

Usually EC50 stands for the concentration giving half of the maximal effect. High values mean a less potent agent, low ones a more potent agent. Usually IC50 stands for the concentration that gives 50% inhibition. In the case of `COC(=O)NC[C@H]1C[C@H](Nc2cc(-c3ccc4cc(C#N)cnn34)ncc2-c2cn(C)nn2)C1` [Compound 33, methyl (((1r,3r)-3-((2-(3-cyanopyrrolo[1,2-b]pyridazin-7-yl)-5-(1-methyl-1H-1,2,3-triazol-4-yl)pyridin-4-yl)amino)cyclobutyl)methyl)carbamate], in the assay with TNFα, the midpoint of the response, the EC50, lay at 44 nM. The molecule further showed an IC50 at IRAK4 enzyme below 1 nM.

In turn, `CC(C)(O)[C@H](F)Cn1cc(-c2cnc(-c3ccc4cc(C#N)cnn34)cc2NC23CCC(N4CCOCC4)(CC2)CC3)nn1` [Compound 34, (R)-7-(5-(1-(2-fluoro-3-hydroxy-3-methylbutyl)-1H-1,2,3-triazol-4-yl)-4-((4-morpholinobicyclo[2.2.2]octan-1-yl)amino)pyridin-2-yl)pyrrolo[1,2-b]pyridazine-3-carbonitrile] gave an EC50 with TNFα (Monocyte) of 6 nM. Besides, the IC50 at IRAK4 enzyme was below 1 nM.

Consider `CC(C)(O)[C@H](F)Cn1cc(-c2cnc(-c3ccc4cc(C#N)cnn34)cc2NC23CCC(N4CCOC4=O)(CC2)CC3)nn1` [Compound 35, (R)-7-(5-(1-(2-fluoro-3-hydroxy-3-methylbutyl)-1H-1,2,3-triazol-4-yl)-4-((4-(2-oxooxazolidin-3-yl)bicyclo[2.2.2]octan-1-yl)amino)pyridin-2-yl)pyrrolo[1,2-b]pyridazine-3-carbonitrile], for which the EC50 in the assay on TNFα (Monocyte) was 3 nM. Also, the IC50 against IRAK4 enzyme was below 1 nM.

In the assay on TNFα (Monocyte), `CNc1cc(-c2ccc3cc(C#N)cnn23)ncc1-c1cn(C)nn1` [Compound 36, 7-(5-(1-methyl-1H-1,2,3-triazol-4-yl)-4-(methylamino)pyridin-2-yl)pyrrolo[1,2-b]pyridazine-3-carbonitrile] returned an EC50 of 324 nM. Further, 14 nM corresponded to half-maximal inhibition against IRAK4 enzyme (IC50).

Regarding `CNc1cc(-c2ccc3cc(C#N)cnn23)ncc1-c1cn(C[C@@H](F)C(C)(C)O)nn1` [Compound 37, (R)-7-(5-(1-(2-fluoro-3-hydroxy-3-methylbutyl)-1H-1,2,3-triazol-4-yl)-4-(methylamino)pyridin-2-yl)pyrrolo[1,2-b]pyridazine-3-carbonitrile], the EC50 in the assay on TNFα (Monocyte) worked out at 28 nM. In addition, on IRAK4 enzyme, the IC50 was below 1 nM.

`CC(C)(O)[C@H](F)Cn1cc(-c2cnc(-c3ccc4cc(C#N)cnn34)cc2N[C@H]2CC[C@H](c3nncs3)CC2)nn1` [Compound 38, 7-(4-(((1r,4R)-4-(1,3,4-thiadiazol-2-yl)cyclohexyl)amino)-5-(1-((R)-2-fluoro-3-hydroxy-3-methylbutyl)-1H-1,2,3-triazol-4-yl)pyridin-2-yl)pyrrolo[1,2-b]pyridazine-3-carbonitrile] gave an EC50 in the assay with TNFα of 6 nM. The molecule also registered an IC50 against IRAK4 enzyme below 1 nM.

`COC(=O)NC[C@H]1C[C@H](Nc2cc(-c3ccc4cc(C#N)cnn34)ncc2-c2cn(C[C@@H](F)C(C)(C)O)nn2)C1` [Compound 39, methyl (((1R,3r)-3-((2-(3-cyanopyrrolo[1,2-b]pyridazin-7-yl)-5-(1-((R)-2-fluoro-3-hydroxy-3-methylbutyl)-1H-1,2,3-triazol-4-yl)pyridin-4-yl)amino)cyclobutyl)methyl)carbamate] showed an EC50 with TNFα of 6 nM. The molecule further yielded an IC50 against IRAK4 enzyme below 1 nM.

As for `COC(=O)N1CCC(n2cc(-c3cnc(-c4ccc5cc(C#N)cnn45)cc3NC(C)C)nn2)CC1` [Compound 40, methyl 4-(4-(6-(3-cyanopyrrolo[1,2-b]pyridazin-7-yl)-4-(isopropylamino)pyridin-3-yl)-1H-1,2,3-triazol-1-yl)piperidine-1-carboxylate], in the assay with TNFα (Monocyte), the EC50 was determined as 84 nM. Also, 1 nM corresponded to half-maximal inhibition on IRAK4 enzyme (IC50).

Take `CC(C)Nc1cc(-c2ccc3cc(C#N)cnn23)ncc1-c1cn(C2CCN(S(C)(=O)=O)CC2)nn1` [Compound 41, 7-(4-(isopropylamino)-5-(1-(1-(methylsulfonyl)piperidin-4-yl)-1H-1,2,3-triazol-4-yl)pyridin-2-yl)pyrrolo[1,2-b]pyridazine-3-carbonitrile]: it took 70 nM to reach a half-maximal effect in the assay with TNFα (Monocyte) (EC50). Also, on IRAK4 enzyme, the IC50 was found to be 1 nM.

`CC(=O)N1CCC(n2cc(-c3cnc(-c4ccc5cc(C#N)cnn45)cc3NC(C)C)nn2)CC1` [Compound 42, 7-(5-(1-(1-acetylpiperidin-4-yl)-1H-1,2,3-triazol-4-yl)-4-(isopropylamino)pyridin-2-yl)pyrrolo[1,2-b]pyridazine-3-carbonitrile] showed an EC50 in the assay on TNFα (Monocyte) of 33 nM. On IRAK4 enzyme, the IC50 came out at 1 nM.

In the case of `CC(C)Nc1cc(-c2ccc3cc(C#N)cnn23)ncc1-c1cn(C2CCNCC2)nn1` [Compound 43, 7-(4-(isopropylamino)-5-(1-(piperidin-4-yl)-1H-1,2,3-triazol-4-yl)pyridin-2-yl)pyrrolo[1,2-b]pyridazine-3-carbonitrile], in the assay with TNFα (Monocyte), the EC50 was found to be 50 nM. This molecule showed an IC50 on IRAK4 enzyme below 1 nM.

In turn, `CC(C)Nc1cc(-c2ccc3cc(C#N)cnn23)ncc1-c1cn(CC(=O)N(C)C)nn1` [Compound 44, 2-(4-(6-(3-cyanopyrrolo[1,2-b]pyridazin-7-yl)-4-(isopropylamino)pyridin-3-yl)-1H-1,2,3-triazol-1-yl)-N,N-dimethylacetamide] displayed an EC50 with TNFα (Monocyte) of 61 nM. Also, the IC50 on IRAK4 enzyme was found to be 1 nM.

In the assay on TNFα (Monocyte), `CNC(=O)Cn1cc(-c2cnc(-c3ccc4cc(C#N)cnn34)cc2NC(C)C)nn1` [Compound 45, 2-(4-(6-(3-cyanopyrrolo[1,2-b]pyridazin-7-yl)-4-(isopropylamino)pyridin-3-yl)-1H-1,2,3-triazol-1-yl)-N-methylacetamide] showed an EC50 of 85 nM. This molecule came in with an IC50 on IRAK4 enzyme of 1 nM.

With `CC(C)Nc1cc(-c2ccc3cc(C#N)cnn23)ncc1-c1cn(C2CCN(C(=O)OC(C)(C)C)CC2)nn1` [Compound 46, tert-butyl 4-(4-(6-(3-cyanopyrrolo[1,2-b]pyridazin-7-yl)-4-(isopropylamino)pyridin-3-yl)-1H-1,2,3-triazol-1-yl)piperidine-1-carboxylate], the midpoint of the response with TNFα (Monocyte), the EC50, lay at 534 nM. The molecule also had an IC50 on IRAK4 enzyme of 7 nM.

As for `CC(C)Nc1cc(-c2ccc3cc(C#N)cnn23)ncc1-c1cn(CCN2CCOCC2)nn1` [Compound 47, 7-(4-(isopropylamino)-5-(1-(2-morpholinoethyl)-1H-1,2,3-triazol-4-yl)pyridin-2-yl)pyrrolo[1,2-b]pyridazine-3-carbonitrile], the EC50 in the assay with TNFα (Monocyte) turned out to be 33 nM. The IC50 against IRAK4 enzyme was below 1 nM.

For the molecule `COCCn1cc(-c2cnc(-c3ccc4cc(C#N)cnn34)cc2NC(C)C)nn1` [Compound 48, 7-(4-(isopropylamino)-5-(1-(2-methoxyethyl)-1H-1,2,3-triazol-4-yl)pyridin-2-yl)pyrrolo[1,2-b]pyridazine-3-carbonitrile], the EC50 in the assay on TNFα (Monocyte) is 125 nM. On IRAK4 enzyme, this molecule registered an IC50 of 2 nM.

As to `CC(C)Nc1cc(-c2ccc3cc(C#N)cnn23)ncc1-c1cn(C[C@@H](F)C(C)(C)O)nn1` [Compound 49, (R)-7-(5-(1-(2-fluoro-3-hydroxy-3-methylbutyl)-1H-1,2,3-triazol-4-yl)-4-(isopropylamino)pyridin-2-yl)pyrrolo[1,2-b]pyridazine-3-carbonitrile], the midpoint of the response in the assay with TNFα (Monocyte), the EC50, lay at 30 nM. The same molecule gave an IC50 against IRAK4 enzyme below 1 nM.

For `CC(C)Nc1cc(-c2ccc3cc(C#N)cnn23)ncc1-c1cn(CC(C)(C)O)nn1` [Compound 50, 7-(5-(1-(2-hydroxy-2-methylpropyl)-1H-1,2,3-triazol-4-yl)-4-(isopropylamino)pyridin-2-yl)pyrrolo[1,2-b]pyridazine-3-carbonitrile], the EC50 in the assay with TNFα (Monocyte) turned out to be 238 nM. Besides, it took 4 nM to reach half-maximal inhibition against IRAK4 enzyme (IC50).

As to `CC(C)Nc1cc(-c2ccc3cc(C#N)cnn23)ncc1-c1cn(C(C)C)nn1` [Compound 51, 7-(5-(1-isopropyl-1H-1,2,3-triazol-4-yl)-4-(isopropylamino)pyridin-2-yl)pyrrolo[1,2-b]pyridazine-3-carbonitrile], it took 132 nM to reach a half-maximal effect in the assay with TNFα (Monocyte) (EC50). For the same molecule, the IC50 at IRAK4 enzyme is below 1 nM.
